Assay results reported in patent publication US20240216316A1, “DIHOMO-GAMMA LINOLENIC ACID (DGLA) IS A NOVEL SENOLYTIC” (Buck Institute for Research on Aging, priority 2020, published 2024).
“Also recorded” adds a separate entry of the source.

Experiments:
IMR-90 fibroblasts = assay: DGLA toxicity to senescent vs mock-irradiated IMR-90 fibroblasts, light microscopy; format: cell-based; conditions: IMR-90 mock-irradiated or 10Gy IR, 10 days later 50 micromolar DGLA for 2 days
Description: IMR-90 fibroblasts were either mock-irradiated (Mock) or irradiated with 10Gy of ionization radiation (IR) to induce senescence. 10 days later, cells were cultured in the presence of either vehicle (media plus FBS carrier) or 50 micromolar DGLA for 2 days. Cells were then photographed using light microscopy.
To evaluate the effect of DGLA on senescent cells, IMR-90 fibroblasts were either mock-irradiated (Mock) or irradiated with 10Gy of ionization radiation (IR) to induce senescence. Ten days later cells were cultured in the presence of either vehicle (media plus FBS carrier) or 50 micromolar DGLA for 2 days. Cells were then photographed using light microscopy.

[1] = tested on: senescent cells [SEN(IR)]; assay: COX-2 dependence of DGLA killing of senescent cells (NS-398 or DMSO), light microscopy and cell counts; format: cell-based; conditions: SEN(IR) vs non-senescent; NS-398 (COX-2 inhibitor) or DMSO for 10 days, then 25 micromolar DGLA for 2 days
Description: Cells were either irradiated [SEN(IR)] or mock irradiated (non-senescent or “NonS”) and cultured continuously for 10 days in the presence of either NS-398 (a COX-2 inhibitor) or DMSO (vehicle). Cells were then treated with either carrier (BSA) or DGLA (25 micromolar) for 2 days, and images were captured by light microscopy.
(§1) Cells were treated as in FIG. 5. NS≡Non-senescent proliferating, SEN(IR)=IR-induced senescence, treated with 25 micromolar DGLA and either DMSO or NS-398. Panel A) Percent survival was calculated by cell counts relative to cells treated without DGLA. Panel B) Cells were stained for cleaved caspase 3 by immunofluorescence and expressed as stained cells relative to DAPI positive nuclei.
Since DGLA is converted to non-toxic arachidonic acid by D5D in most normal cells (Nakamura & Nara (2004) Annu. Rev. Nutr. 24: 345-376), the combination of gain of COX-2 and loss of D5D in senescent cells makes this an exploitable weakness. […] Its derivatives, the 1-series prostaglandins (PGX1's) are largely anti-inflammatory, and therefore may also have positive effects in the context of sterile inflammation associated with aging, so-called “inflammaging” (Franceschi & Campisi (2014) J. Gerontol. A Biol. Sci. Med. Sci. 69 (Suppl 1): S4-9).

[2] = tested on: senescent cells [SEN(IR)]; assay: Cleaved caspase 3 immunofluorescence (apoptosis) after DGLA with NS-398 or DMSO; format: cell-based; conditions: 25 micromolar DGLA with DMSO or NS-398; stained cells relative to DAPI positive nuclei
Description: as §1

p16-positive cells [3] = assay: Senescence-associated beta-galactosidase staining of epididymal fat and liver of aged P16-3MR mice; format: in vivo; conditions: P16-3MR mice aged 22 months; gavage 400 mg/kg for 5 consecutive days; tissues five days after final gavage
Description: P16-3MR mice were aged for 22 months, and gavaged with 400 mg/kg of DGLA ethyl ester or vehicle (phosal 50) for 5 consecutive days. Five days after the final gavage, epididymal fat and liver tissues were isolated and stained for senescence-associated beta-galactosidase.

IMR-90 [4] = assay: Cell counts and light microscopy of senescent vs nonsenescent IMR-90 treated with T3364366 in 10% or 0.2% FBS; format: cell-based; conditions: 72 hours; for FBS dependence of cell killing: 10% FBS vs 0.2% FBS, normalized to 0 dose groups
Description: IMR-90 were induced to senesce via 10 Gy of ionizing radiation [SEN(IR)] and cultured for 7 days, followed by treatment with the indicated doses of T3364366 in the presence of 10% FBS (to provide PUFAs). Nonsenescent (NonSEN) cells served as a control. After 72 hours, cell numbers were counted and normalized to DMSO treatments.
Cells from FIG. 10 were visualized by light microscopy, allowing visualization of the cytotoxic properties of T334366 at various doses. (see, e.g., FIG. 11).
IMR-90 were induced to senesce via 10 Gy of ionizing radiation [SEN(IR)] and cultured for 7 days, followed by treatment with the indicated doses of T3364366 in the presence of 10% FBS (which provides PUFAs and growth factors) (FIG. 12, panels A and B—red line, squares) or 0.2% FBS (FIG. 12, panel B—purple line, circles) (which induces quiescence, but limits the ability of cells to synthesize DGLA). Nonsenescent (NonSEN) cells served as a control. After 72 hours, cell numbers were counted and normalized to the 0 dose treatment groups.

[5] = molecular target: delta-5-desaturase (D5D, gene name: FADS1) (Homo sapiens, UniProt O60427); conditions: as described in Obukowicz et al. (1998) / Miyahisa et al. (2016); cited from earlier work
p16-positive cells [6] = assay: p16 promoter luminescence in aged P16-3MR mice before and after DGLA ethyl ester gavage; format: in vivo; conditions: P16-3MR mice aged 22 months; gavage 400 mg/kg for 5 consecutive days; measured two days after final gavage
Description: P16-3MR mice were aged for 22 months and luminescence (p16 promoter activity) was measured by luminometry (panel A). Mice were then gavaged with 400 mg/kg of DGLA ethyl ester or vehicle (phosal 50) for 5 consecutive days. Two days after the final gavage, luminescence was again measured (panel B). Six total mice were measured for luminescence and plotted before and after DGLA treatment (panel C).

IMR-90 [7] = assay: Cell counts of senescent vs nonsenescent IMR-90 treated with CP 24,879 plus sub-toxic DGLA; format: cell-based; conditions: 11.75 μM CP 24,879 in the presence of 10 μM DGLA; 72 hours; SEN(IR) vs NonSEN
Description: IMR-90 were induced to senesce via 10 Gy of ionizing radiation [SEN(IR)] and cultured for 7 days, followed by treatment with 11.75 μM CP 24,879 or vehicle (DMSO) in the presence of a sub-toxic concentration of DGLA (10 μM). Nonsenescent (NonSEN) cells served as a control. After 72 hours, cell numbers were counted and normalized to DMSO treatments.

[8] = molecular target: T1, delta-6-desaturase (FADS2/D6D) (Homo sapiens, UniProt O95864); conditions: as described in Obukowicz et al. (1998); cited from earlier work
T1 sequence (O95864 1-444): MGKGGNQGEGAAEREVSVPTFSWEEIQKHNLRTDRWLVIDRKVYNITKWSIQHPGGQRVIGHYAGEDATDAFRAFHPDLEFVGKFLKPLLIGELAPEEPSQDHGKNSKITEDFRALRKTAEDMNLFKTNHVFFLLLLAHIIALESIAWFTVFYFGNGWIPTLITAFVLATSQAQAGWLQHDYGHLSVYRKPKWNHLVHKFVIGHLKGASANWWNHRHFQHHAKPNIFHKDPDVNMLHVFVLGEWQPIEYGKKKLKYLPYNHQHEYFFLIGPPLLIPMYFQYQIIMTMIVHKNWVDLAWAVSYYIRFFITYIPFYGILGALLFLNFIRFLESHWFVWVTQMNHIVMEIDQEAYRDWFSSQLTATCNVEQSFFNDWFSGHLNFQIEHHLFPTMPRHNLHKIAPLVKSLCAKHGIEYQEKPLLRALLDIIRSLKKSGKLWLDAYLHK

delta-5-desaturase (D5D, gene name: FADS1), sequence (O60427 whole entry, species assumed): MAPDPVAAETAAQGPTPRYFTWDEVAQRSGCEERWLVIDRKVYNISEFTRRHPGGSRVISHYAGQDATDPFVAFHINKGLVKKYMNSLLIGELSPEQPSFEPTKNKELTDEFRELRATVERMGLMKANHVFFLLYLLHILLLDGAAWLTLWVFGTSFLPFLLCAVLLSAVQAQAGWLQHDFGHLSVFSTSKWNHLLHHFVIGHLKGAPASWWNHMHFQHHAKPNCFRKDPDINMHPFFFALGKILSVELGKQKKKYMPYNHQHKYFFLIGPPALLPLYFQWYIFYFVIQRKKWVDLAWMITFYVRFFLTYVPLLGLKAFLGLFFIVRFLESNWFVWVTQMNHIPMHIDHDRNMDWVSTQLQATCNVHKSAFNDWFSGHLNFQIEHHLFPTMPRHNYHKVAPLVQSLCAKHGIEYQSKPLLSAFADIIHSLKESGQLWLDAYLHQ

Structure (SMILES): CCCCC/C=C\C/C=C\C/C=C\CCCCCCC(=O)O [DGLA, dihomo-gamma-linolenic acid]
- toxicity to senescent cells (IMR-90 fibroblasts): selectively toxic to senescent cells
- killing of senescent cells, COX-2 dependence [1]: selectively toxic to senescent cells in a COX-2 dependent manner; also recorded: kills senescent cells in a COX-2-dependent manner
- apoptosis in senescent cells (cleaved caspase 3), COX-2 dependence [2]: induces apoptosis in senescent cells in a COX-2-dependent manner
- senescence-associated beta-galactosidase in epididymal fat and liver tissues (p16-positive cells [3]): less senescence-associated beta-glactodsidase was observed

Structure (SMILES): CC(=O)NCCSc1nc2cscc2c(=O)n1-c1ccc(OCC(F)(F)F)cc1 [Compound T3364366, N-[2-[[3,4-Dihydro-4-oxo-3-[4-(2,2,2-trifluoroethoxy)phenyl]thieno[3,4-d]pyrimidin-2-yl]thio]ethyl]acetamide]
- FBS dependence of cell killing (IMR-90 [4]): only kills senescent cells in the presence of FBS
- FBS dependence of cell killing (IMR-90 [4]; listed as T334366): FBS-dependent killing of senescent cells
- killing of senescent cells (cell numbers normalized to DMSO) (IMR-90 [4]; indicated doses, 10% FBS, SEN(IR) vs NonSEN): selectively kills senescent cells
- inhibition of delta-5-desaturase [5]: specific inhibitor of delta-5-desaturase

Structure (SMILES): CCCCC/C=C\C/C=C\C/C=C\CCCCCCC(=O)OCC [DGLA ethyl ester]
- burden of p16-positive cells (luminescence, p16 promoter activity) (p16-positive cells [6]): lowers the burden of p16-positive cells
- senescence-associated beta-galactosidase in epididymal fat and liver tissues (p16-positive cells [3]): lowers the burden of p16-positive cells

Structure (SMILES): CC(C)CCOc1ccc(N)cc1.Cl [CP 24,879, 4-(3-methylbutoxy)-benzenamine, monohydrochloride]
- killing of senescent cells (cell numbers normalized to DMSO) (IMR-90 [7]): selectively kills senescent cells
- inhibition of delta-5-desaturase [5]: inhibitor of both delta-5- and delta-6-desaturase
- inhibition of delta-6-desaturase [8]: inhibitor of both delta-5- and delta-6-desaturase
